Experimental data reported in PubChem BioAssay AID328 (DTP/NCI, 2004).
Values joined by “and” are separate entries in the source; they are usually repeats but may differ in a detail not shown here. Equal entries are not always repeated. Inconclusive results and toxic doses are left out.

Test system: BDF1 mice, P388 leukemia ip, median survival T/C
Assay: NCI In Vivo Anticancer Drug Screen. Data for tumor model P388 Leukemia (intraperitoneal) in B6D2F1 (BDF1) mice
Conditions: endpoint: median survival time, higher = longer survival
Outline: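 In tumour-bearing mice, survival after compound treatment is set against the vehicle group and given as a quotient.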

[1] = dose: 50.0 mg/kg/injection, schedule: Q01DX009 (ip), vehicle: saline
[2] = dose: 100.0 mg/kg/injection, schedule: Q01DX009 (ip), vehicle: saline
[3] = dose: 200.0 mg/kg/injection, schedule: Q01DX009 (ip), vehicle: saline
[4] = dose: 12.5 mg/kg/injection, schedule: Q01DX009 (ip), vehicle: saline
[5] = dose: 12.5 mg/kg/injection, schedule: Q04DX003 (ip), vehicle: Klucel (hydroxypropylcellulose) (HPC)
[6] = dose: 25.0 mg/kg/injection, schedule: Q01DX009 (ip), vehicle: saline
[7] = dose: 25.0 mg/kg/injection, schedule: Q04DX003 (ip), vehicle: Klucel (hydroxypropylcellulose) (HPC)
[8] = dose: 50.0 mg/kg/injection, schedule: Q04DX003 (ip), vehicle: Klucel (hydroxypropylcellulose) (HPC)
[9] = dose: 100.0 mg/kg/injection, schedule: Q04DX003 (ip), vehicle: Klucel (hydroxypropylcellulose) (HPC)
[10] = dose: 25.0 mg/kg/injection, schedule: Q01DX009 (ip), vehicle: saline with Tween-80
[11] = dose: 50.0 mg/kg/injection, schedule: Q01DX009 (ip), vehicle: saline with Tween-80
[12] = dose: 100.0 mg/kg/injection, schedule: Q01DX009 (ip), vehicle: saline with Tween-80
[13] = dose: 100.0 mg/kg/injection, schedule: Q04DX003 (ip), vehicle: saline with Tween-80
[14] = dose: 200.0 mg/kg/injection, schedule: Q01DX009 (ip), vehicle: saline with Tween-80
[15] = dose: 200.0 mg/kg/injection, schedule: Q04DX003 (ip), vehicle: saline with Tween-80
[16] = dose: 400.0 mg/kg/injection, schedule: Q04DX003 (ip), vehicle: saline with Tween-80
[17] = dose: 25.0 mg/kg/injection, schedule: Q04DX003 (ip), vehicle: saline with Tween-80

## CCB1OCC2OB(CC)OC2C2OB(CC)OC2CO1 (centres undefined)
[1]
  T/C: 100 % of control
[2]
  T/C: 97 % of control
[3]
  T/C: 93 % of control

## CN1C(=O)N(C)C2(C=Cc3cc([N+](=O)[O-])ccc3O2)N(C)C1=O
[1]
  T/C: 99 % of control
[2]
  T/C: 101 % of control
[3]
  T/C: 99 % of control

## COc1ccc(NCCOc2ccccc2Br)cc1
dose: 100.0 mg/kg/injection, schedule: Q01DX009 (ip), vehicle: other
  T/C: 109 % of control
dose: 400.0 mg/kg/injection, schedule: Q01DX009 (ip), vehicle: other
  T/C: 118 % of control

## CC(=O)OCc1c(COC(C)=O)c(-c2ccccc2)n2c1CCC2
dose: 6.25 mg/kg/injection, schedule: Q01DX009 (ip), vehicle: Klucel (hydroxypropylcellulose) (HPC)
  T/C: 107 % of control

## Nc1cc(NC(=O)c2ccc(Cl)cc2)ccc1S(=O)(=O)O
dose: 3.12 mg/kg/injection, schedule: Q01DX009 (ip), vehicle: saline
  T/C: 117 % of control
dose: 6.25 mg/kg/injection, schedule: Q01DX009 (ip), vehicle: saline
  T/C: 99 % of control
dose: 6.25 mg/kg/injection, schedule: Q04DX003 (ip), vehicle: Klucel (hydroxypropylcellulose) (HPC)
  T/C: 95 % of control
[4]
  T/C: 90 % of control
[5]
  T/C: 106 % of control
[6]
  T/C: 87 % of control
[7]
  T/C: 93 % of control
[8]
  T/C: 98 % of control
[9]
  T/C: 97 % of control

## CC[N+](CC)(CC)CCCNC1=CC(=O)C(NCCC[N+](CC)(CC)CC)=CC1=O
dose: 0.39 mg/kg/injection, schedule: Q04DX003 (ip), vehicle: saline
  T/C: 99 % of control
dose: 0.78 mg/kg/injection, schedule: Q04DX003 (ip), vehicle: saline
  T/C: 99 % of control

## O=C1C(Cl)=C(Nc2nccs2)C(=O)c2ccccc21
dose: 50.0 mg/kg/injection, schedule: Q01DX005 (ip), vehicle: saline with Tween-80
  T/C: 102 % of control
dose: 100.0 mg/kg/injection, schedule: Q01DX005 (ip), vehicle: saline with Tween-80
  T/C: 107 % of control
dose: 200.0 mg/kg/injection, schedule: Q01DX005 (ip), vehicle: saline with Tween-80
  T/C: 118 % of control

## Nc1ccccc1SC1CC(=O)N(c2ccc(I)cc2)C1=O (centres undefined)
[5]
  T/C: 95 % of control
dose: 25.0 mg/kg/injection, schedule: Q01DX001 (ip), vehicle: Klucel (hydroxypropylcellulose) (HPC)
  T/C: 108 % of control
[7]
  T/C: 95 % of control
dose: 50.0 mg/kg/injection, schedule: Q01DX001 (ip), vehicle: Klucel (hydroxypropylcellulose) (HPC)
  T/C: 104 % of control
[8]
  T/C: 100 % of control
dose: 100.0 mg/kg/injection, schedule: Q01DX001 (ip), vehicle: Klucel (hydroxypropylcellulose) (HPC)
  T/C: 108 % of control
[9]
  T/C: 112 % of control

## C#CCOC(=O)NCC
[2]
  T/C: 100 % of control
dose: 100.0 mg/kg/injection, schedule: Q04DX003 (ip), vehicle: saline
  T/C: 100 % of control
[3]
  T/C: 115 % of control
dose: 200.0 mg/kg/injection, schedule: Q04DX003 (ip), vehicle: saline
  T/C: 100 % of control
dose: 400.0 mg/kg/injection, schedule: Q01DX009 (ip), vehicle: saline
  T/C: 115 % of control
dose: 400.0 mg/kg/injection, schedule: Q04DX003 (ip), vehicle: saline
  T/C: 104 % of control

## COc1cc2ccc(C(C)NCC(=O)O)cc2cc1OC (centres undefined)
dose: 100.0 mg/kg/injection, schedule: Q01DX009 (ip), vehicle: Klucel (hydroxypropylcellulose) (HPC)
  T/C: 100 % of control
[9]
  T/C: 100 % of control
dose: 200.0 mg/kg/injection, schedule: Q01DX009 (ip), vehicle: Klucel (hydroxypropylcellulose) (HPC)
  T/C: 104 % of control
dose: 200.0 mg/kg/injection, schedule: Q04DX003 (ip), vehicle: Klucel (hydroxypropylcellulose) (HPC)
  T/C: 100 % of control
dose: 400.0 mg/kg/injection, schedule: Q01DX009 (ip), vehicle: Klucel (hydroxypropylcellulose) (HPC)
  T/C: 109 % of control
dose: 400.0 mg/kg/injection, schedule: Q04DX003 (ip), vehicle: Klucel (hydroxypropylcellulose) (HPC)
  T/C: 109 % of control

## CCO/C=C1\SC(=S)N(Cc2ccccc2)C1=O
dose: 12.5 mg/kg/injection, schedule: Q01DX009 (ip), vehicle: other
  T/C: 86 % of control
dose: 25.0 mg/kg/injection, schedule: Q01DX009 (ip), vehicle: other
  T/C: 109 % of control
dose: 44.0 mg/kg/injection, schedule: Q04DX003 (ip), vehicle: other
  T/C: 118 % of control
dose: 44.0 mg/kg/injection, schedule: Q04DX003 (ip), vehicle: saline + alcohol
  T/C: 100 % of control
dose: 44.0 mg/kg/injection, schedule: Q04DX003 (ip), vehicle: saline with Tween-80
  T/C: 118 % of control
dose: 100.0 mg/kg/injection, schedule: Q04DX003 (ip), vehicle: saline + alcohol
  T/C: 104 % of control
dose: 150.0 mg/kg/injection, schedule: Q04DX003 (ip), vehicle: other
  T/C: 154 % of control
dose: 150.0 mg/kg/injection, schedule: Q04DX003 (ip), vehicle: saline + alcohol
  T/C: 95 % of control
dose: 150.0 mg/kg/injection, schedule: Q04DX003 (ip), vehicle: saline with Tween-80
  T/C: 116 % of control

## Cn1nnnc1N/N=C(\Br)c1ccccc1
[10]
  T/C: 110 % of control
[11]
  T/C: 105 % of control
[12]
  T/C: 120 % of control
[13]
  T/C: 104 % of control
[14]
  T/C: 120 % of control
[15]
  T/C: 95 % of control
[16]
  T/C: 90 % of control

## c1ccc(-c2nc3ccccc3nc2-c2ccc(Sc3ccc(-c4nc5ccccc5nc4-c4ccccc4)cc3)cc2)cc1
[12]
  T/C: 101 % of control
[14]
  T/C: 93 % of control

## CN(C)c1ccc(C(=O)NN)cc1
dose: 6.25 mg/kg/injection, schedule: Q01DX009 (ip), vehicle: saline with Tween-80
  T/C: 91 % of control
dose: 12.5 mg/kg/injection, schedule: Q01DX009 (ip), vehicle: saline with Tween-80
  T/C: 91 % of control
[10]
  T/C: 122 % of control
[17]
  T/C: 100 % of control
[11]
  T/C: 115 % of control
dose: 50.0 mg/kg/injection, schedule: Q04DX003 (ip), vehicle: saline with Tween-80
  T/C: 98 % of control
[12]
  T/C: 121 % of control
[13]
  T/C: 107 % of control
[14]
  T/C: 100 % of control
[15]
  T/C: 109 % of control
dose: 300.0 mg/kg/injection, schedule: Q01DX009 (ip), vehicle: saline with Tween-80
  T/C: 106 % of control

## Clc1ccc2c(c1)C(Br)c1cc(Cl)cc(Cl)c1-2 (centres undefined)
[12]
  T/C: 108 % of control
[14]
  T/C: 87 % of control
[15]
  T/C: 87 % of control
[16]
  T/C: 87 % of control

## CC(C)(C)[O][Pb]([c]1ccccc1)([c]1ccccc1)[c]1ccccc1
dose: 0.39 mg/kg/injection, schedule: Q01DX009 (ip), vehicle: saline
  T/C: 100 % of control
dose: 0.85 mg/kg/injection, schedule: Q04DX003 (ip), vehicle: saline
  T/C: 105 % of control
dose: 1.02 mg/kg/injection, schedule: Q01DX009 (ip), vehicle: saline
  T/C: 104 % of control and 115 % of control
dose: 1.7 mg/kg/injection, schedule: Q04DX003 (ip), vehicle: saline
  T/C: 110 % of control
dose: 2.34 mg/kg/injection, schedule: Q01DX009 (ip), vehicle: saline
  T/C: 113 % of control and 120 % of control
dose: 3.4 mg/kg/injection, schedule: Q01DX009 (ip), vehicle: saline
  T/C: 90 % of control
dose: 3.4 mg/kg/injection, schedule: Q04DX003 (ip), vehicle: saline
  T/C: 90 % of control
dose: 5.0 mg/kg/injection, schedule: Q04DX003 (ip), vehicle: saline
  T/C: 104 % of control
dose: 5.75 mg/kg/injection, schedule: Q01DX001 (ip), vehicle: Klucel (hydroxypropylcellulose) (HPC)
  T/C: 88 % of control
dose: 7.7 mg/kg/injection, schedule: Q04DX003 (ip), vehicle: saline
  T/C: 86 % of control

## COc1ccc(Oc2nc(=O)n3ccccc3n2)cc1
[11]
  T/C: 93 % of control
[12]
  T/C: 90 % of control
[14]
  T/C: 88 % of control

## O=c1cc(CBr)c2ccccc2[nH]1
dose: 6.25 mg/kg/injection, schedule: Q04DX003 (ip), vehicle: saline with Tween-80
  T/C: 91 % of control
dose: 12.5 mg/kg/injection, schedule: Q04DX003 (ip), vehicle: saline with Tween-80
  T/C: 104 % of control
[17]
  T/C: 104 % of control

## FC(F)(F)c1ccc2c(c1)N(CCCN1CCN(CCN3CCCCC3)CC1)c1ccccc1S2
[4]
  T/C: 118 % of control
[6]
  T/C: 115 % of control
[1]
  T/C: 86 % of control
